One experiment concerns the target T1, EP2 receptor (Homo sapiens, UniProt P43116).
T1 construct: SF295 glioblastoma cells express high endogenous EP2 and no EP4; host or cells: SF295 glioblastoma cells
The experiment in a line: hEP2 cAMP assay (SF295 glioblastoma cells, HTRF cAMP, PGE2 stimulation). The following applies: antagonistic activity. It is filed as cell-based. The method, boiled down: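 HTRF cAMP readout gave % cAMP relative to DMSO, fitted to IC50 with duplicate points. Compounds were preincubated 45 min at room temperature with EP2-expressing, EP4-negative SF295 cells in IBMX (2 mM)-containing buffer before a 30 min challenge with PGE2 at 75 nM final, its EC80.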

A further experiment has as its target T2, PTGER4 (EP4) (Homo sapiens, UniProt P35408).
T2 construct: host or cells: HEK 293 (PathHunter PTGER4 b-arrestin cell line)
In words: hEP4 b-arrestin assay (PathHunter HEK 293 PTGER4 b-arrestin cells). It is filed as cell-based. The following applies: antagonistic activity, beta-arrestin assay; read-out: hEP4 b-arr IC50. The method, boiled down: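 β-Arrestin recruitment to EP4 was read as enzyme-fragment-complementation chemiluminescence in stably transfected HEK 293 cells. After 15 min compound preincubation at 37 °C (ranges 10 μM–2 nM or 1 μM–0.2 nM), cells were stimulated 120 min with PGE2 at 20 nM, its EC80. IC50 values were fitted from duplicates, with repeat measurements averaged.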

Molecules are shown by their SMILES.

T2 sequence (P35408 whole entry): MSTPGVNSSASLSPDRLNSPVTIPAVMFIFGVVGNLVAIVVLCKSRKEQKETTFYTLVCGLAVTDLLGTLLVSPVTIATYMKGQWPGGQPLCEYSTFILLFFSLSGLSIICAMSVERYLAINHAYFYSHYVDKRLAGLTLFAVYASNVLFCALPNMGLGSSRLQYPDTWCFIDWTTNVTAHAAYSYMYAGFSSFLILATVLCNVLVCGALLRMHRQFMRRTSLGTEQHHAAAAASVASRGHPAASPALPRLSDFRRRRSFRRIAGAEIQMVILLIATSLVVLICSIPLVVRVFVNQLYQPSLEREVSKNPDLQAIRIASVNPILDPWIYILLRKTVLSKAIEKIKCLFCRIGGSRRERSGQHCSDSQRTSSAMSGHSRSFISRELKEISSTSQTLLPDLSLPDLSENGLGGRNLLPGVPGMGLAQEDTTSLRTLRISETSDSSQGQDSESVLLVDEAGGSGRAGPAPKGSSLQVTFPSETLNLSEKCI
T1 sequence (P43116 whole entry): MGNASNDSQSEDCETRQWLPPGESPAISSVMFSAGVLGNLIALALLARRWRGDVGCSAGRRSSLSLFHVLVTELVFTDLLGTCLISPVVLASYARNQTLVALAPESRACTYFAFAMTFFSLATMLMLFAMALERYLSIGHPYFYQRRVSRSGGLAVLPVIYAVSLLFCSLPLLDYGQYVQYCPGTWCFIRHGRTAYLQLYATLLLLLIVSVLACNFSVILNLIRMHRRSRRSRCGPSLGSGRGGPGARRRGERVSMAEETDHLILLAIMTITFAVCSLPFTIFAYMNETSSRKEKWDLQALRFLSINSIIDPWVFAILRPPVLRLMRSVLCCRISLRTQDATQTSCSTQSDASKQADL

With `COc1cc(Cl)cc2c(CCNc3cc(-c4cc(F)c(C(=O)O)c(OC5CCC5)c4)ncn3)c(C)oc12` [Example 151, 4-{6-[2-(5-Chloro-7-methoxy-2-methyl-benzofuran-3-yl)-ethylamino]-pyrimidin-4-yl}-2-cyclobutoxy-6-fluoro-benzoic acid], the IC50 against EP2 receptor came to 95 nM; on PTGER4 (EP4) it was 163 nM.

Consider `Cc1sc2c(C)cc(F)cc2c1CCNc1cc(-c2ccc(C(=O)O)c(OC3CCCC3)c2)ncn1` [Example 152, 2-Cyclopentyloxy-4-{6-[2-(5-fluoro-2,7-dimethyl-benzo[b]thiophen-3-yl)-ethylamino]-pyrimidin-4-yl}-benzoic acid], for which the IC50 came to 84 nM at EP2 receptor and 337 nM at PTGER4 (EP4).

Turning to `COc1ccc(Cl)c2c(CCNc3cc(-c4ccc(C(=O)O)c(OC5CCCC5)c4)ncn3)c(C)sc12` [Example 153, 4-{6-[2-(4-Chloro-7-methoxy-2-methyl-benzo[b]thiophen-3-yl)-ethylamino]-pyrimidin-4-yl}-2-cyclopentyloxy-benzoic acid], the concentration for half-maximal inhibition (IC50) at EP2 receptor turned out to be 212 nM; at PTGER4 (EP4) it was 157 nM.

On to `Cc1oc2c(C)cc(F)cc2c1CCNc1cc(-c2ccc(C(=O)O)c(OC3CCCC3)c2)ncn1` [Example 154, 2-Cyclopentyloxy-4-{6-[2-(5-fluoro-2,7-dimethyl-benzofuran-3-yl)-ethylamino]-pyrimidin-4-yl}-benzoic acid], for which the 50% inhibitory concentration (IC50) worked out at 70 nM against EP2 receptor and 911 nM at PTGER4 (EP4).

For the compound `CCOc1cc(-c2cc(NCCc3c(C)sc4c(C)cc(F)cc34)ncn2)ccc1-c1noc(=O)[nH]1` [Example 155, 3-(2-Ethoxy-4-{6-[2-(5-fluoro-2,7-dimethyl-benzo[b]thiophen-3-yl)-ethylamino]-pyrimidin-4-yl}-phenyl)-[1,2,4]oxadiazol-5(4H)-one [tautomeric form: 3-(2-ethoxy-4-(6-((2-(5-fluoro-2,7-dimethylbenzo[b]thiophen-3-yl)ethyl)amino)pyrimidin-4-yl)phenyl)-[1,2,4]oxadiazol-5-ol]], the IC50 on EP2 receptor came to 87 nM; at PTGER4 (EP4), 47 nM.

For `CCOc1cc(-c2cc(NCCc3c(C)sc4c(C)cc(F)cc34)ncn2)sc1C(=O)NS(N)(=O)=O` [Example 156, 3-Ethoxy-5-(6-((2-(5-fluoro-2,7-dimethylbenzo[b]thiophen-3-yl)ethyl)amino)pyrimidin-4-yl)-N-sulfamoylthiophene-2-carboxamide], the IC50 at EP2 receptor is 10 nM; at PTGER4 (EP4), 26 nM.

Turning to `CCOc1cc(-c2cc(NCCc3c(C)sc4c(C)cc(F)cc34)ncn2)sc1C(=O)NS(C)(=O)=O` [Example 157, N-(3-Ethoxy-5-{6-[2-(5-fluoro-2,7-dimethyl-benzo[b]thiophen-3-yl)-ethylamino]-pyrimidin-4-yl}-thiophene-2-carbonyl)-methanesulfonamide], the IC50 on EP2 receptor amounted to 18 nM; on PTGER4 (EP4), 42 nM.

Take `CCOc1cc(-c2cc(NCCc3c(C)sc4c(C)cc(F)cc34)ncn2)sc1-c1nnn[nH]1` [Example 158, {6-[4-Ethoxy-5-(1H-tetrazol-5-yl)-thiophen-2-yl]-pyrimidin-4-yl}-[2-(5-fluoro-2,7-dimethyl-benzo[b]thiophen-3-yl)-ethyl]-amine]: the 50% inhibitory concentration (IC50) on EP2 receptor amounted to 4 nM; at PTGER4 (EP4), 7 nM.

Turning to `CCOc1nc(-c2cc(NCCc3c(C)sc4c(C)cc(F)cc34)ncn2)sc1C(=O)O` [Example 160, 4-Ethoxy-2-{6-[2-(5-fluoro-2,7-dimethyl-benzo[b]thiophen-3-yl)-ethylamino]-pyrimidin-4-yl}-thiazole-5-carboxylic acid], the IC50 at EP2 receptor came out at 10 nM; at PTGER4 (EP4) it was 16 nM.

For `CCc1nc(-c2cc(NCCc3c(C)sc4c(C)cc(F)cc34)ncn2)sc1C(=O)O` [Example 161, 4-Ethyl-2-{6-[2-(5-fluoro-2,7-dimethyl-benzo[b]thiophen-3-yl)-ethylamino]-pyrimidin-4-yl}-thiazole-5-carboxylic acid], the concentration for half-maximal inhibition (IC50) against EP2 receptor is 27 nM; at PTGER4 (EP4), 256 nM.

For the compound `CCOc1nc(-c2cc(NCCc3c(C)sc4c(C)cc(F)cc34)ncn2)sc1-c1noc(=O)[nH]1` [Example 162, 3-(4-Ethoxy-2-{6-[2-(5-fluoro-2,7-dimethyl-benzo[b]thiophen-3-yl)-ethylamino]-pyrimidin-4-yl}-thiazol-5-yl)-[1,2,4]oxadiazol-5(4H)-one [tautomeric form: 3-(4-ethoxy-2-(6-((2-(5-fluoro-2,7-dimethylbenzo[b]thiophen-3-yl)ethyl)amino)pyrimidin-4-yl)thiazol-5-yl)-[1,2,4]oxadiazol-5-ol]], the IC50 on EP2 receptor turned out to be 35 nM; on PTGER4 (EP4), 5 nM.

`CCc1nc(-c2cc(NCCc3c(C)sc4c(C)cc(F)cc34)ncn2)sc1-c1noc(=O)[nH]1` [Example 163, 3-(4-Ethyl-2-{6-[2-(5-fluoro-2,7-dimethyl-benzo[b]thiophen-3-yl)-ethylamino]-pyrimidin-4-yl}-thiazol-5-yl)-[1,2,4]oxadiazol-5(4H)-one [tautomeric form: 3-(4-ethyl-2-(6-((2-(5-fluoro-2,7-dimethylbenzo[b]thiophen-3-yl)ethyl)amino)pyrimidin-4-yl)thiazol-5-yl)-[1,2,4]oxadiazol-5-ol]]: the half-inhibitory concentration (IC50) was 20 nM at EP2 receptor and 17 nM at PTGER4 (EP4).

As for `CCOc1cc(-c2cc(NCCc3c(C#N)sc4c(OC)cccc34)ncn2)ccc1CC(=O)O` [Example 164, (4-{6-[2-(2-Cyano-7-methoxy-benzo[b]thiophen-3-yl)-ethylamino]-pyrimidin-4-yl}-2-ethoxy-phenyl)-acetic acid], the IC50 against EP2 receptor was 348 nM; on PTGER4 (EP4), 50 nM.

Turning to `CCOc1cc(-c2cc(NCCc3c(C#N)sc4c(C)cc(F)cc34)ncn2)cc(F)c1CC(=O)O` [Example 165, (4-{6-[2-(2-Cyano-5-fluoro-7-methyl-benzo[b]thiophen-3-yl)-ethylamino]-pyrimidin-4-yl}-2-ethoxy-6-fluoro-phenyl)-acetic acid], the IC50 at EP2 receptor was 129 nM; on PTGER4 (EP4), 54 nM.

Take `Cc1sc2c(C)cccc2c1CCNc1cc(-c2ccc(C(=O)O)c(SCC(C)C)c2)ncn1` [Example 166, 4-{6-[2-(2,7-Dimethyl-benzo[b]thiophen-3-yl)-ethylamino]-pyrimidin-4-yl}-2-isobutylsulfanyl-benzoic acid]: the half-inhibitory concentration (IC50) on EP2 receptor came to 183 nM; at PTGER4 (EP4), 254 nM.

As for `CCCc1cc(-c2cc(NCCc3c(C#N)sc4c(C)cc(F)cc34)ncn2)ccc1C(=O)O` [Example 167, 4-{6-[2-(2-Cyano-5-fluoro-7-methyl-benzo[b]thiophen-3-yl)-ethylamino]-pyrimidin-4-yl}-2-propyl-benzoic acid], the half-maximal inhibitory concentration (IC50) at EP2 receptor was found to be 11 nM; on PTGER4 (EP4), 34 nM.

On to `COc1cc(-c2cc(NCCc3c(C#N)sc4c(C)cc(F)cc34)ncn2)ccc1CC(=O)O` [Example 168, (4-{6-[2-(2-Cyano-5-fluoro-7-methyl-benzo[b]thiophen-3-yl)-ethylamino]-pyrimidin-4-yl}-2-methoxy-phenyl)-acetic acid], for which the IC50 on EP2 receptor was 3030 nM; on PTGER4 (EP4), 66 nM.

On to `CCCOc1cc(-c2cc(NCCc3c(C#N)sc4c(C)cc(F)cc34)ncn2)ccc1CC(=O)O` [Example 169, (4-{6-[2-(2-Cyano-5-fluoro-7-methyl-benzo[b]thiophen-3-yl)-ethylamino]-pyrimidin-4-yl}-2-propoxy-phenyl)-acetic acid], for which the 50% inhibitory concentration (IC50) against EP2 receptor is 142 nM; on PTGER4 (EP4), 100 nM.

Take `CCCc1cc(-c2cc(NCCc3c(C#N)sc4c(C)cc(F)cc34)ncn2)ccc1CC(=O)O` [Example 170, (4-{6-[2-(2-Cyano-5-fluoro-7-methyl-benzo[b]thiophen-3-yl)-ethylamino]-pyrimidin-4-yl}-2-propyl-phenyl)-acetic acid]: the figures for the half-maximal inhibitory concentration (IC50) on EP2 receptor and on PTGER4 (EP4) were 116 nM and 19 nM, respectively.

As for `Cc1cc(F)cc2c(CCNc3cc(-c4ccc(CC(=O)O)c(OC(C)C)c4)ncn3)c(C#N)sc12` [Example 171, (4-{6-[2-(2-Cyano-5-fluoro-7-methyl-benzo[b]thiophen-3-yl)-ethylamino]-pyrimidin-4-yl}-2-isopropoxy-phenyl)-acetic acid], the IC50 came to 275 nM against EP2 receptor and 57 nM at PTGER4 (EP4).

For the compound `Cc1cc(F)cc2c(CCNc3cc(-c4ccc(C(=O)O)c(OC(C)C)c4)ncn3)c(C#N)sc12` [Example 172, 4-{6-[2-(2-Cyano-5-fluoro-7-methyl-benzo[b]thiophen-3-yl)-ethylamino]-pyrimidin-4-yl}-2-isopropoxy-benzoic acid], the results for the half-inhibitory concentration (IC50) on EP2 receptor and on PTGER4 (EP4) were 50 nM and 166 nM, respectively.

`CCOc1cc(-c2cc(NCCc3c(C#N)sc4c(C)cc(F)cc34)ncn2)ccc1OCCC(=O)O` [Example 176, 3-(4-{6-[2-(2-Cyano-5-fluoro-7-methyl-benzo[b]thiophen-3-yl)-ethylamino]-pyrimidin-4-yl}-2-ethoxy-phenoxy)-propionic acid]: the IC50 at EP2 receptor worked out at 37 nM; on PTGER4 (EP4), 19 nM.

Consider `Cc1sc2c(C)cc(F)cc2c1CCNc1cc(-c2ccc(CC(=O)O)c(CC(C)C)c2)ncn1` [Example 182, (4-{6-[2-(5-Fluoro-2,7-dimethyl-benzo[b]thiophen-3-yl)-ethylamino]-pyrimidin-4-yl}-2-isobutyl-phenyl)-acetic acid], for which the IC50 against EP2 receptor was found to be 617 nM; at PTGER4 (EP4), 164 nM.

Regarding `Cc1sc2c(C)cc(F)cc2c1CCNc1cc(-c2ccc(C(=O)O)c(OCC(C)C)c2)ncn1` [Example 184, 4-{6-[2-(5-Fluoro-2,7-dimethyl-benzo[b]thiophen-3-yl)-ethylamino]-pyrimidin-4-yl}-2-isobutoxy-benzoic acid], the IC50 came out at 39 nM at EP2 receptor and 311 nM on PTGER4 (EP4).

Source of the values: patent US11325899B2, “Benzofurane and benzothiophene derivatives as PGE2 receptor modulators” (IDORSIA PHARMACEUTICALS LTD, priority 2017, dated 2022).
